Measurements: article PMC8402032, “Unsymmetric Cisplatin-Based Pt(IV) Conjugates Containing a PARP-1 Inhibitor Pharmacophore Tested on Malignant Pleural Mesothelioma Cell Lines” (Molecules, 2021)

Columns and labels:
[1] = system: MM98 (sarcomatoid) malignant pleural mesothelioma cells; assay: Cell viability assay (Trypan blue dye exclusion), MM98; format: cell-based, human; settings: 72 h treatment
Protocol: Complexes 6–9 were tested on a panel of human MPM cell lines together with CDDP and SAA1, added for comparison (Table 1). The half-maximal inhibitory concentration, IC50, was determined on MSTO-211H (biphasic phenotype), REN (epithelioid), BR95 (epithelioid), and MM98 (sarcomatoid) cancer cell lines to identify the most promising Pt(IV) conjugate to be further investigated. To determine the number of viable cells, the use of the dye exclusion assay was preferred to the colorimetric assay because of the heterogeneity in the energy metabolism between the different MPM cell lines. This may justify minor differences with respect to the previously published IC50 for CDDP [40].
Cells were seeded at a density of 10 × 10^4 cells per well in 6-well plates in RPMI medium supplemented with 10% fetal bovine serum (FBS), 100 μg mL^−1 streptomycin, and 10 μg mL^−1 penicillin and incubated overnight at 37 °C in a humidified environment containing 5% CO2 to allow adherence. Cisplatin was dissolved in 0.9% w/v aqueous NaCl brought to pH = 3 with HCl (final stock concentration 1 mM). The Pt(IV) complexes were dissolved in DMSO (final stock concentration 5 mM); the resulting solutions were microfiltered (0.45 μm) and their Pt content was checked by ICP-MS (see Section 3.5.2). These mother solutions were diluted in complete medium to the required concentration range.
Following 72 h of treatment with the diluent of the compound (Ctrl) or different doses of the Pt compounds, cells were trypsinized and stained with Trypan blue. The number of cells considered viable (unstained cells) was counted in a Bürker haemocytometer within 5 min after staining.

[2] = Lipophilicity by RP-HPLC (log k′); format: physicochemical; settings: RP-HPLC C18, 15 mM formic acid/CH3OH 30/70
From the text: Since it has been reported that Pt(IV) complexes enter cells by passive diffusion only, with a few exceptions, the evaluation of lipophilicity is key because it is related to the ability of a molecule to passively cross cellular membranes. RP-HPLC techniques are often used to measure the lipophilicity of a compound, since the retention is due to partitioning between the C18 chains of the stationary phase (representing the cellular membrane) and the aqueous eluent (representing the water inside and outside cells). For this purpose, the retention times (tR) of the complexes were transformed as log k′, where k′ = (tR − t0)/t0) and t0 is the column dead-time (Table 1).
RP-HPLC was used to evaluate the capacity factors of the compounds as reported elsewhere. Briefly, a chromatogram for each Pt complex (0.5 mM) was run on a C18 column Phenosphere-NEXT (5-μm, 250 × 4.6 mm ID) with an eluant composition of 15 mM formic acid/CH3OH 30/70 and a flow rate of 0.5 mL min^−1. The corresponding retention time tR was used to calculate log k′, where k′ = (tR − t0)/t0. The dead time of the column t0 was the tR of KCl, added as unretained internal reference.

SMILES: CC(=O)[O][Pt]([NH2])([NH2])([Cl])([Cl])[O]C(=O)CCNC(=O)c1cccc(NC(=O)OCC2c3ccccc3-c3ccccc32)c1 [Compound 6, (OC-6-44)-Acetato[3-(3-(fmoc-amino)-benzamido)-propanoato]-diammine-dichlorido-platinum(IV)]
- ratio IC50 (cisplatin)/IC50 (Pt(IV) complex), MM98 [1]: 1.8
- IC50 ([1]; mean ± sd): 980 ± 30 nM
- Log k′ [2]: 4.22
